Measurements reported in article PMC7804203, “Targeting adaptor protein SLP76 of RAGE as a therapeutic approach for lethal sepsis” (Nature Communications, 2021).

B1: SAM domain of SLP76: synthesized peptide of SLP76 SAM domain used in SPRi (peptide)
peptide: WDPDSLADYFKKLNYKDCEKAVKKYHIDGARFLNLTENDIQKFPKLRVPILSKLSQEINKNEERRSI
B2: HMGB1: recombinant mouse HMGB1, Abcam (#ab181949) (protein, UniProt P63158 1-215, looked up)
High mobility group protein B1: MGKGDPKKPRGKMSSYAFFVQTCREEHKKKHPDASVNFSEFSKKCSERWKTMSAKEKGKFEDMAKADKARYEREMKTYIPPKGETKKKFKDPNAPKRPPSAFFLFCSEYRPKIKGEHPGLSIGDVAKKLGEMWNNTAADDKQPYEKKAAKLKEKYEKDIAAYRAKGKPDAAKKGVVKAEKSKKKKEEEDDEEDEEDEEEEEEEEDEDEEEDDDDE

Tests used:
[1] = tested on: IL-6 secretion, RAW264.7 cells; assay: ELISA of IL-6 from RAW264.7 cells pretreated with kinase inhibitors; type: cell-based; set-up: unit not given here
Protocol: (§1) Serum was separated from patient samples for measurement of AGEs with an ELISA kit (#MBS267540, MyBioSource, San Diego, CA, USA) according to the manufacturer’s instructions. […] Then, cultured cells were incubated with or without AGEs (100 μg/ml) for 12 h, and the supernatant was collected for the measurement of TNF (#MTA00B) and IL-6 (#M6000B) levels with ELISA kits (R&D Systems, Minneapolis, MN, USA) according to the manufacturer’s instructions.

[2] = tested on: TNF secretion, RAW264.7 cells; assay: ELISA of TNF from RAW264.7 cells pretreated with kinase inhibitors; type: cell-based
Protocol: as §1

cytosolic tail of RAGE = assay: SPRi binding affinity of SAM domain peptide to RAGE cytosolic tail peptide; settings: synthetic peptides, SAM 250, 500, 1000, 2000 nM, TBS pH 7.5, n=4
Protocol: To measure the binding affinity of the cytosolic tail of RAGE with the SAM domain of SLP76, a PlexArray HT A100 (Plexera, USA) was used to monitor the whole procedure in real time. Briefly, a chip with well-prepared biomolecular microarray was assembled with a plastic flow cell for sample loading. The synthesized peptide of RAGE cytosolic tail was prepared at 5 mM concentration in Tris-buffered saline (TBS) running buffer (20 mM Tris and 100 mM NaCl [pH 7.5]), and a 10 mM glycine-HCl buffer (pH 2.0) was used as regeneration buffer. The synthesized peptide of SLP76 SAM domain flowed at increasing concentrations (250, 500, 1000, 2000 nM). Binding data were collected and analyzed by a commercial SPRi analysis software (Plexera SPR Data Analysis Module, Plexera, USA).

[3] = tested on: p38 MAPK phosphorylation, BMDMs; assay: Western blot, p38 MAPK phosphorylation in WT or SLP76-/- BMDMs stimulated with HMGB1; type: cell-based, mice; settings: for Relative p38 MAPK phosphorylation, Supplementary figure 12a: relative to WT Ctrl = 1
Protocol: (§2) Cultured cells in 6-well plates were harvested, washed twice with PBS, and lysed for 30 min on ice in 150 μl of cell lysis buffer (#9803) from CST (Boston, MA, USA) containing 1 mM PMSF and 2 μg/ml leupeptin. Proteins were quantified with the BCA method. Protein samples were resolved by 10% SDS-PAGE, transferred to a nitrocellulose (NC) membrane (#GE10600002), and blocked for 1 h with 5% nonfat milk in Tris-buffered saline containing 0.1% Tween 20 (TBST) at room temperature. After incubation with a specific primary antibody overnight at 4 °C, the membrane was washed with TBST three times. Then, the membrane was incubated with a secondary antibody for 1 h at room temperature. Enhanced chemiluminescence (ECL) (#32109, Thermo Fisher Scientific, Waltham, MA, USA) was used to visualize the protein bands, and images were acquired in a ChemiDoc™ Imaging System (Bio-Rad, Hercules, CA, USA). Each experiment was repeated at least three times.
(§3) BMDMs were isolated from WT, AGER knockout, and SLP76 knockout mice. Mice were euthanized, and the femur and tibia were isolated and sterilized in 70% ethanol for 15 s and then washed with PBS. A 25-gauge needle was used to flush out the bone marrow with DMEM supplemented with 1% FBS. Bone marrow cells were passed through a cell strainer (70 μm), washed with PBS, and plated into a […] dish at a density of 1 × 10^7 cells/10 ml medium. BMDMs were grown in DMEM supplemented with 10% FBS and M-CSF (#130-094-129) (20 ng/ml) at 37 °C, and the medium was refreshed on day 3. After growth for 7 days, the cells were ready for use in subsequent experiments.

[4] = tested on: ERK1/2 phosphorylation, BMDMs; assay: Western blot, ERK1/2 phosphorylation in WT or SLP76-/- BMDMs stimulated with HMGB1; type: cell-based, mice; settings: relative to WT Ctrl = 1
Protocol: as §2, §3

[5] = tested on: IKKα/β phosphorylation, BMDMs; assay: Western blot, IKKα/β phosphorylation in WT or SLP76-/- BMDMs stimulated with HMGB1; type: cell-based, mice; settings: relative to WT Ctrl = 1
Protocol: as §2, §3

[6] = AGEs-, inhibitor alone, replicate Exp1
[7] = AGEs-, inhibitor alone, replicate Exp2
[8] = AGEs-, inhibitor alone, replicate Exp3
[9] = inhibitor 1 h, then AGEs 100 μg/ml 12 h, replicate Exp1
[10] = inhibitor 1 h, then AGEs 100 μg/ml 12 h, replicate Exp2
[11] = inhibitor 1 h, then AGEs 100 μg/ml 12 h, replicate Exp3
[12] = AGEs-, inhibitor alone, replicate Exp1, in pg/mL
[13] = AGEs-, inhibitor alone, replicate Exp2, in pg/mL
[14] = AGEs-, inhibitor alone, replicate Exp3, in pg/mL
[15] = inhibitor 1 h, then AGEs 100 μg/ml 12 h, replicate Exp1, in pg/mL
[16] = inhibitor 1 h, then AGEs 100 μg/ml 12 h, replicate Exp2, in pg/mL
[17] = inhibitor 1 h, then AGEs 100 μg/ml 12 h, replicate Exp3, in pg/mL

Molecule | IL-6 level in culture medium [1, 6] | IL-6 level in culture medium [1, 7] | IL-6 level in culture medium [1, 8] | IL-6 level in culture medium [1, 9] | IL-6 level in culture medium [1, 10] | IL-6 level in culture medium [1, 11] | TNF level in culture medium [2, 12] | TNF level in culture medium [2, 13] | TNF level in culture medium [2, 14] | TNF level in culture medium [2, 15] | TNF level in culture medium [2, 16] | TNF level in culture medium [2, 17] | also measured
C[S+]([O-])c1ccc(-c2nc(-c3ccncc3)c(-c3ccc(F)cc3)[nH]2)cc1 (centres unmarked) [SB203580] | 3.021 | 5.813 | 3.214 | 30.327 | 52.19 | 33.459 | 86.693 | 25.813 | 72.783 | 2106.86 | 5252.19 | 5785.62 | 
COc1cccc(-c2cc(=O)c3ccccc3o2)c1N [PD98059] | 7.69 | 0 | 2.224 | 19.112 | 12.03 | 16.667 | 26.755 |  | 9.578 | 1779.92 | 1294.03 | 1283.56 | TNF level in culture medium [2, 7]: 0 pg/mL
COc1cc(O)c2c(c1)oc(=O)c1c3cc(O)c(O)cc3oc21 [NF-kB inhibitor] | 8.8 | 7.706 | 6.631 | 22.657 | 39.53 | 43.441 | 256.62 | 271.706 | 441.431 | 3097.6 | 4273.53 | 5262.53 | 
B1 |  |  |  |  |  |  |  |  |  |  |  |  | Binding to cytosolic tail of RAGE (cytosolic tail of RAGE): dose-dependent binding
B2 |  |  |  |  |  |  |  |  |  |  |  |  | Activation of proinflammatory signaling pathways ([3]; HMGB1 400 ng/ml, 15 min, p38 MAPK, ERK1/2, IKKα/β, text says RAW264.7 cells, figure BMDMs): activated proinflammatory signaling pathways via SLP76; Relative p38 MAPK phosphorylation, Supplementary figure 12a ([3]; SLP76-/-, Exp1): 2.8038; Relative p38 MAPK phosphorylation, Supplementary figure 12a ([3]; SLP76-/-, Exp2): 3.004; Relative p38 MAPK phosphorylation, Supplementary figure 12a ([3]; SLP76-/-, Exp3): 2.223; Relative p38 MAPK phosphorylation, Supplementary figure 12a ([3]; WT, Exp1): 7.041; Relative p38 MAPK phosphorylation, Supplementary figure 12a ([3]; WT, Exp2): 4.728; Relative p38 MAPK phosphorylation, Supplementary figure 12a ([3]; WT, Exp3): 5.924; Relative ERK1/2 phosphorylation, Supplementary figure 12b ([4]; SLP76-/-, Exp1): 7.033; Relative ERK1/2 phosphorylation, Supplementary figure 12b ([4]; SLP76-/-, Exp2): 9.087; Relative ERK1/2 phosphorylation, Supplementary figure 12b ([4]; SLP76-/-, Exp3): 4.787; Relative ERK1/2 phosphorylation, Supplementary figure 12b ([4]; WT, Exp1): 15.3469; Relative ERK1/2 phosphorylation, Supplementary figure 12b ([4]; WT, Exp2): 12.0882; Relative ERK1/2 phosphorylation, Supplementary figure 12b ([4]; WT, Exp3): 9.928; Relative IKKα/β phosphorylation, Supplementary figure 12c ([5]; SLP76-/-, Exp1): 0.8306; Relative IKKα/β phosphorylation, Supplementary figure 12c ([5]; SLP76-/-, Exp2): 2.523; Relative IKKα/β phosphorylation, Supplementary figure 12c ([5]; SLP76-/-, Exp3): 0.8014; Relative IKKα/β phosphorylation, Supplementary figure 12c ([5]; WT, Exp1): 3.067; Relative IKKα/β phosphorylation, Supplementary figure 12c ([5]; WT, Exp2): 3.67; Relative IKKα/β phosphorylation, Supplementary figure 12c ([5]; WT, Exp3): 5.409
